How the values were obtained:
[1] = tested on: primary human GBM cells (GBM6, GBM12); experiment: Cell death by trypan blue exclusion in primary human GBM cells; assay type: cell-based
Text: The pooled cell pellets were resuspended and mixed with trypan blue dye.

[2] = tested on: MIA PaCa-2 and BxPC-3 cells; experiment: ROS formation, carboxy-H2DCFDA fluorescence; assay type: cell-based, human; conditions: 200 μM
Protocol: FIG. 14. Temporal kinetics of reactive oxygen species (ROS) formation induced by POH. MIA PaCa-2 and BxPC-3 cells were stained with carboxy-H2DCF-DA in PBS for 30 min followed by treatment of POH, and fluorescence was measured using a Flurometer with a green filter at the indicated time points. The readings noted were the difference between POH-treated group compared to untreated control.
To determine ROS production, cells were stained with 100 μl of 10 μM carboxy-H2DCFDA (Molecular Probes™, Invitrogen) in PBS for 30 min followed by treatment with Perillyl alcohol and fluorescence was measured with a Fluorometer using a green filter at the indicated time points.

[3] = tested on: MIA PaCa-2/luc xenografts; experiment: MIA PaCa-2/luc xenografts on both flanks, Ad/MB by tail vein with UTMD on left tumor; assay type: in vivo, nude mice; conditions: POH 75 mg/kg i.p. daily; Ad.5-vec+POH compared to Ad.5/3-vec
Protocol: FIG. 11A-E. Ad.5/3-CTV-M7 in combination with POH completely eradicates primary and distant tumors in nude mice bearing human pancreatic tumor xenografts. Tumor xenografts generated from MIA-PaCa-2 cells stably expressing a luciferase gene (MIA PaCa-2-luc) were established in both the left and right flanks of nude mice. Tumors on the left flank were sonoporated for 10 min following tail-vein injection of the indicated complement treated Ad/MB complex, and treated as described in Materials and Methods section for 3 weeks starting from day 14 (1 injection/week). POH was administered i.p. daily for 4 weeks from day 1 of implantation of cells in nude mice. (A) Bioluminescence imaging (BLI) was performed using Xenogen In Vivo Imaging System (IVIS). BLI was performed every week and luminescence was quantified and tumor growth response curve of the left flank (B) and right flank or distant tumor (C) was plotted. (D) Secreted MDA-7/IL-24 in blood serum was measured using an MDA-7/IL-24 ELISA kit. (E) There was significant increase in ‘bystander’ effect of MDA-7/IL-24 in inhibiting in vivo tumor growth as measured by BLI. […]
Athymic nude mice were injected s.c. in both flanks with 5×10^6 MIA PaCa-2/luc (a stable clone of MIA PaCa-2 cells containing integrated pGL-3/luc). […] Images were analyzed by Living Image software. […]

[4] = cited from earlier work
PDAC cell lines = experiment: MTT cell viability assay in pancreatic cancer cell lines; assay type: cell-based, human; conditions: 200 μM
Protocol: FIGS. 13A-D. Cancer-specific oncolytic effects of CTV-M7 in pancreatic cancer cells. Pancreatic cancer cells were treated with non-replicating Ad.5-mda-7 or Ad.5/3-mda-7 as well as conditional replication-competent Ads (CRCA) i.e., Ad.5-CTV-M7 and Ad.5/3-CTV-M7 and MTT assays were performed after 3 days. IC50 was calculated using GraphPad Prism 5.0. Points; mean±S.E. of three different experiments each performed in quadruplicate.
Pancreatic cancer cell lines were infected with Ad in incomplete medium for 3 h followed by treatment with Perillyl alcohol (POH) (200 μM) in complete medium (10% FBS) for 72 h, and cell proliferation assays were performed at O.D. 560 nm using cell proliferation assays after adding 100 μl of 3-(4,5-dimethylthiazol-2-yl)-2,5-diphenyltetrazolium bromide (Sigma Aldrich) (MTT) dye (1 mg/ml) (Sigma-Aldrich).

GBM6 cells [5] = experiment: Autophagy, LC3-GFP vesicle formation; assay type: cell-based, human
Protocol: FIG. 19A-D. Induction of ER stress and autophagy plays a role in the interaction between MDA-7/IL-24 and HDACIs. Panel A. GBM6 cells were transfected in quadruplicate with a plasmid to express an LC3 (ATG8)-GFP fusion protein and in parallel transfected with scrambled siRNA (siSCR) or an siRNA to knock down Beclin/expression. Twenty-four h after transfection cells were treated with GST or GST-MDA-7 (20 nM) and/or SBHA (3 μM). Cells (a representative of 40 per well per time point) were examined 6 h, 12 h and 24 h after treatment using an Axiovert microscope (x40) for the formation of punctate vesicles containing LC3-GFP. Data are plotted as the number of LC3-GFP vesicles per cell (n=-2, +/− SEM) (*p<0.05 greater than GST+VEH; **p<0.05 greater than GST-MDA-7+VEH). Panel B. GBM6 cells were transfected with scrambled siRNA (siSCR) or an siRNA to knock down Beclinl expression. Twenty-four h after transfection cells were treated with GST or GST-MDA-7 (20 nM) and/or SBHA (3 μM). Cells were isolated 48 h later and viability determined by trypan blue exclusion (n=3, +/− SEM) (#p<0.05 less than corresponding value in siSCR cells). Panel C. GBM6 cells were transfected with an empty vector control plasmid or a plasmid to express dominant negative PERK. […] Cells were isolated 6 h after exposure and the phosphorylation of PERK and eIF2α determined (representative n=2). […]

GBM6 cells [6] = experiment: Colony formation assay with Calcusyn analysis; assay type: cell-based, human; conditions: GBM cells
Protocol: GBM6 cells were plated as single cells (500-2,500 per 60-mm dish, in sextuplicate). […] Forty-eight h later cells were washed free of drugs and colonies were permitted to form for 20 days. (n=3, +/−SEM). Using the Calcusyn for Windows program we calculated the fraction affected (Fa) and the Combination Index (CI). A CI value of less than 1.00 indicates a synergy of interaction.

CCOC(=O)C1=C(N)Oc2ccc(Br)cc2C1C(C#N)C(=O)OCC (centres unmarked) [HA14-1]
effect on lethality of Ad.5-mda-7 ([1]; GBM6, Ad.5-mda-7 moi 10, obatoclax 0-200 nM or HA14-1 0-10 μM, 24 h): enhanced the lethality of Ad.5-mda-7

C=C(C)[C@@H]1CC=C(CO)CC1 [POH, perillyl alcohol]
ROS levels at 24 h ([2]; 24 h): baseline levels | time of maximum ROS levels ([2]; time course): 6 h | ROS induction ([2]; wild type and mutant K-ras pancreatic cell lines): sufficient to induce significant amounts of ROS | effect of the POH dose with empty vector on tumor growth [3]: non-toxic but therapeutically inactive | side effects ([4]; POH 800-1600 mg/m^2/dose): minimal side effects | stability and detection in plasma ([4]; plasma): very unstable and cannot be detected in plasma | lethality and proliferation of PDAC cell lines (PDAC cell lines): not lethal and does not affect proliferation

C=C(C)[C@@H]1CC=C(C(=O)O)CC1 [Perillic acid]
plasma concentration associated with minimal toxicities ([4]; plasma): 500 µM

O=C(CCCCCCC(=O)NO)NO [SBHA, Suberohydroxamic acid]
effect on MDA-7/IL-24 stimulated autophagy levels (GBM6 cells [5]; SBHA 3 μM with GST-MDA-7 20 nM): enhanced MDA-7/IL-24 stimulated autophagy levels | effect on lethality of MDA-7/IL-24 ([1]; GBM6, GBM12 infected with Ad.5-mda-7 moi 10, Na Valproate 0.3-1.0 mM, SBHA 0.3-5.0 μM, 48 h, dose-dependent): enhanced the lethality of MDA-7/IL-24 | interaction with MDA-7/IL-24 protein in colony formation (GBM6 cells [6]): synergized

CCCC(CCC)C(=O)[O-].[Na+] [sodium valproate]
interaction with MDA-7/IL-24 protein in colony formation (GBM6 cells [6]): synergized

B1: GST-MDA-7: bacterially synthesized GST-MDA-7 protein (protein)
chain: QEFHFGPCQVKGVVPQKLWEAFWAVKDTMQAQDNITSARLLQQEVLQNVSDAESCYLVHTLLEFYLKTVFKNYHNRTVEVRTLKSFSTLANNFVLIVSQLQPSQENEMFSIRDSAHRRFLLFRRAFKQLDVEAALTKALGEVDILLTWMQKFYKL
autophagy (LC3-GFP vesicle) levels (GBM6 cells [5]; GST-MDA-7 20 nM, 6 h, 12 h, 24 h, time-dependent): increased autophagy

Reference: patent US10314870B2, “Tropism modified cancer terminator virus (Ad.5/3 CTV;AD.5/3-CTV-M7)” (priority 2012, dated 2019)
